# Data from patent US10123993B2, “Cyclic ureas as inhibitors of rock” (BRISTOL-MYERS SQUIBB COMPANY, priority 2015, dated 2018).
# pIC50: −log10 of the molar value.
# Target: ROCK2 (Homo sapiens, UniProt O75116)
# Assay: ROCK2 kinase inhibition assay (Caliper LABCHIP, FITC peptide substrate)
# Assay type: biochemical
# Details: 5 μM ATP, 1.5 μM peptide substrate; value ranges
# Procedure, shortened: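 Rho kinase with 5 μM ATP and 1.5 μM FITC-AHA-AKRRRLSSLRA-OH peptide in HEPES pH 7.5, 20 mM MgCl2, 0.015% Brij-35, 4 mM DTT, DMSO <2%. EDTA stop; phospho and non-phospho peptide separated on LabChip. IC50 from dose-response fit.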
# Sequence of ROCK2 (O75116 whole entry, species assumed): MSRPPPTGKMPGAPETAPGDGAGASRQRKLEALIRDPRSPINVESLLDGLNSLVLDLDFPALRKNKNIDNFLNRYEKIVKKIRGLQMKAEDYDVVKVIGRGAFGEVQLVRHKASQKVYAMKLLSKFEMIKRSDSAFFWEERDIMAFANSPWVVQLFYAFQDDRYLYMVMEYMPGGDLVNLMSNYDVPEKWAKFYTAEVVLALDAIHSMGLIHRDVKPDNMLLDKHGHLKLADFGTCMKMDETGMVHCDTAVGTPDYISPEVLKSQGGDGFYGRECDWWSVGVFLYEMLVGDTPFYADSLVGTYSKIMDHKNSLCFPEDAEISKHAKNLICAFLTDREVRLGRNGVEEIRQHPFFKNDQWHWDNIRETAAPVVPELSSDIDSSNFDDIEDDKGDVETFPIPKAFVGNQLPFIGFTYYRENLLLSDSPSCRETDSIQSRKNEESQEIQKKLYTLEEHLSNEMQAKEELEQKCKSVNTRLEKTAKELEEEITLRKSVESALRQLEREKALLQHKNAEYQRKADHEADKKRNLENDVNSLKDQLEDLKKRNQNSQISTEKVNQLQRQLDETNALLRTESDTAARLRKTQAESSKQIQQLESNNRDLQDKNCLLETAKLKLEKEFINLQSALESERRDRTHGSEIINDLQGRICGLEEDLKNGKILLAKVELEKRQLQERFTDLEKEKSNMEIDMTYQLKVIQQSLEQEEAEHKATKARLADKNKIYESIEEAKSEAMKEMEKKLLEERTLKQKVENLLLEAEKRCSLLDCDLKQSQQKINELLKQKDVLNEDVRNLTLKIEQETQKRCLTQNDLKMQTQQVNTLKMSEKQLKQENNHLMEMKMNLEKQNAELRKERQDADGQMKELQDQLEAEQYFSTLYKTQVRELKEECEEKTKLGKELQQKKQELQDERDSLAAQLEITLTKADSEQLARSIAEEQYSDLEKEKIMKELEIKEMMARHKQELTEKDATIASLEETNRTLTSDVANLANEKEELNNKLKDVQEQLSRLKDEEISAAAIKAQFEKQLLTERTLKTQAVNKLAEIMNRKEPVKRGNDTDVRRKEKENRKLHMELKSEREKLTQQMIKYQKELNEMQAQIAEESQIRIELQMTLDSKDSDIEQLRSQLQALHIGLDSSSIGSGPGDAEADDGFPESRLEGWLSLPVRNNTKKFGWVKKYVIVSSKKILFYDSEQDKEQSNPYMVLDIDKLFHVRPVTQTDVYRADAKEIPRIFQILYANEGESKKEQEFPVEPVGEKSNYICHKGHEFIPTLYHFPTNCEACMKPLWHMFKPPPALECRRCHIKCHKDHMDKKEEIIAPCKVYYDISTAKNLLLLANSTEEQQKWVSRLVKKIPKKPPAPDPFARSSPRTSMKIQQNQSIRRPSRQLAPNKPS
row,pIC50,Structure (SMILES)
1,6.70 to 7.70,"COc1cccc(CN2C(=O)N(c3ccc(-c4cn[nH]c4)cc3)CC2(C)C)c1F [Example 143, 1-(4-(1H-pyrazol-4-yl)phenyl)-3-(2-fluoro-3-methoxy-benzyl)-4,4-dimethyl-imidazolidin-2-one]"
2,7.70 to 8.68,"CC1(C)CN(c2ccc(-c3cn[nH]c3)cc2)C(=O)N1Cc1cccc(OCC2CC2)c1 [Example 144, 1-(4-(1H-pyrazol-4-yl)phenyl)-3-(3-(cyclo-propyl-methoxy)benzyl)-4,4-dimethyl-imidazolidin-2-one]"
3,7.70 to 8.68,"CCc1cc(N2CC(C)(C)N(Cc3cc(F)cc(OC)c3)C2=O)ccc1-c1cn[nH]c1 [Example 147, 1-(3-ethyl-4-(1H-pyrazol-4-yl)-phenyl)-3-(3-fluoro-5-methoxy-benzyl)-4,4-dimethyl-imidazolidin-2-one]"
4,7.70 to 8.68,"CCc1cc(N2CC(C)(C)N(Cc3cccc(OC)c3)C2=O)ccc1-c1cn[nH]c1 [Example 148, 1-(3-ethyl-4-(1H-pyrazol-4-yl)phenyl)-3-(3-methoxy-benzyl)-4,4-dimethyl-imidazolidin-2-one]"
5,7.70 to 8.68,"COc1cc(F)cc(CN2C(=O)N(c3ccc(-c4cn[nH]c4)c(C)n3)CC2(C)C)c1 [Example 151, 3-(3-fluoro-5-methoxy-benzyl)-4,4-dimethyl-1-(6-methyl-5-(1H-pyrazol-4-yl)pyridin-2-yl)-imidazolidin-2-one]"
6,7.70 to 8.68,"COc1cc(CN2C(=O)N(c3ccc(-c4cn[nH]c4)c(C)n3)CC2(C)C)ccc1F [Example 152, 3-(4-fluoro-3-methoxy-benzyl)-4,4-dimethyl-1-(6-methyl-5-(1H-pyrazol-4-yl)pyridin-2-yl)-imidazolidin-2-one]"
7,5.70 to 6.70,"COc1cccc(CN2C(=O)N(c3ccc(-c4cn[nH]c4)cc3)C(=O)C2CO)c1 (stereo not shown) [Example 153, 3-(4-(1H-Pyrazol-4-yl)phenyl)-5-(hydroxymethyl)-1-(3-methoxybenzyl)imidazolidine-2,4-dione]"
8,> 8.70,"CCc1nc(N2CCN(Cc3cccc(OC)c3)C2=O)ccc1-c1cn[nH]c1 [Example 167, 1-(6-ethyl-5-(1H-pyrazol-4-yl)pyridin-2-yl)-3-(3-methoxy-benzyl) imidazolidin-2-one]"
9,> 8.70,"CCc1nc(N2CCN(Cc3cc(F)cc(OC)c3)C2=O)ccc1-c1cn[nH]c1 [Example 168, 1-(6-ethyl-5-(1H-pyrazol-4-yl)pyridin-2-yl)-3-(3-fluoro-5-methoxy-benzyl) imidazolidin-2-one]"
10,6.70 to 7.70,"CCc1nc(N2CCN(Cc3cccc(OCC4CC4)c3)C2=O)ccc1-c1cn[nH]c1 [Example 169, 1-(3-(cyclo-propyl-methoxy)-benzyl)-3-(6-ethyl-5-(1H-pyrazol-4-yl)pyridin-2-yl)-imidazolidin-2-one]"
11,7.70 to 8.68,"CCc1nc(N2CCN(Cc3ccc(F)c(OC)c3)C2=O)ccc1-c1cn[nH]c1 [Example 170, 1-(6-ethyl-5-(1H-pyrazol-4-yl)pyridin-2-yl)-3-(4-fluoro-3-methoxy-benzyl) imidazolidin-2-one]"
12,6.70 to 7.70,"CCc1nc(-n2ccn(Cc3ccc(F)c(OC)c3)c2=O)ccc1-c1cn[nH]c1 [Example 171, 1-(6-ethyl-5-(1H-pyrazol-4-yl)pyridin-2-yl)-3-(4-fIuoro-3-methoxy-benzyl)-1H-imidazol-2(3H)-one]"
13,7.70 to 8.68,"CCc1nc(-n2ccn(Cc3cc(F)cc(OC)c3)c2=O)ccc1-c1cn[nH]c1 [Example 172, 1-(6-ethyl-5-(1H-pyrazol-4-yl)pyridin-2-yl)-3-(3-fluoro-5-methoxy-benzyl)-1H-imidazol-2(3H)-one]"
14,> 8.70,"CCC1CN(c2ccc(-c3cn[nH]c3)cc2)C(=O)N1Cc1cccc(OC)c1 (stereo not shown) [Example 175, 1-(4-(1H-pyrazol-4-yl)phenyl)-4-ethyl-3-(3-methoxy-benzyl) imidazolidin-2-one]"
15,> 8.70,"CCC1CN(c2ccc(-c3cn[nH]c3)cc2)C(=O)N1Cc1cc(F)cc(OC)c1 (stereo not shown) [Example 176, 1-(4-(1H-pyrazol-4-yl)phenyl)-4-ethyl-3-(3-fluoro-5-methoxy-benzyl) imidazolidin-2-one]"
16,6.70 to 7.70,"CCC1CN(c2ccc(-c3cn[nH]c3)cc2)C(=O)N1Cc1cccc(OCC2CC2)c1 (stereo not shown) [Example 177, 1-(4-(1H-pyrazol-4-yl)phenyl)-3-(3-(cyclo-propyl-methoxy)-benzyl)-4-ethyl-imidazolidin-2-one]"
17,7.70 to 8.68,"COc1cc(F)cc(CN2CCN(c3ccc(-c4cn[nH]c4)c(C)n3)C2=O)c1 [Example 178, 1-(3-fluoro-5-methoxy-benzyl)-3-(6-methyl-5-(1H-pyrazol-4-yl)pyridin-2-yl)-imidazolidin-2-one]"
18,7.70 to 8.68,"COc1cccc(CN2CCN(c3ccc(-c4cn[nH]c4)c(C)n3)C2=O)c1 [Example 179, 1-(3-methoxy-benzyl)-3-(6-methyl-5-(1H-pyrazol-4-yl)pyridin-2-yl)-imidazolidin-2-one]"
19,> 8.70,"CCc1nc(-n2ccn(Cc3cccc(OC)c3)c2=O)ccc1-c1cn[nH]c1 [Example 180, 1-(6-ethyl-5-(1H-pyrazol-4-yl)pyridin-2-yl)-3-(3-methoxy-benzyl)-1H-imidazol-2(3H)-one]"

row,pIC50,Structure (SMILES)
1,7.70 to 8.68,"COc1cc(F)cc(Cn2ccn(-c3ccc(-c4cn[nH]c4)c(C)n3)c2=O)c1 [Example 185, 1-(3-fluoro-5-methoxy-benzyl)-3-(6-methyl-5-(1H-pyrazol-4-yl)pyridin-2-yl)-1H-imidazol-2(3H)-one]"
2,6.70 to 7.70,"Cc1nc(N2CCN(Cc3cccc(OCC4CC4)c3)C2=O)ccc1-c1cn[nH]c1 [Example 186, 1-(3-(cyclo-propyl-methoxy)-benzyl)-3-(6-methyl-5-(1H-pyrazol-4-yl)pyridin-2-yl)-imidazolidin-2-one]"
3,7.70 to 8.68,"COc1cccc(Cn2ccn(-c3ccc(-c4cn[nH]c4)c(C)n3)c2=O)c1 [Example 187, 1-(3-methoxy-benzyl)-3-(6-methyl-5-(1H-pyrazol-4-yl)pyridin-2-yl)-1H-imidazol-2(3H)-one]"
4,5.70 to 6.70,"CCc1cc(N2CCN(Cc3cccc(OC)c3)C2=O)ncc1-c1cn[nH]c1 [Example 190, 1-(4-ethyl-5-(1H-pyrazol-4-yl)pyridin-2-yl)-3-(3-methoxy-benzyl) imidazolidin-2-one]"
5,5.70 to 6.70,"CCc1cc(N2CCN(Cc3cc(F)cc(OC)c3)C2=O)ncc1-c1cn[nH]c1 [Example 191, 1-(4-ethyl-5-(1H-pyrazol-4-yl)pyridin-2-yl)-3-(3-fluoro-5-methoxy-benzyl) imidazolidin-2-one]"
6,5.70 to 6.70,"CCc1cc(N2CCN(Cc3ccc(F)c(OC)c3)C2=O)ncc1-c1cn[nH]c1 [Example 194, 1-(4-ethyl-5-(1H-pyrazol-4-yl)pyridin-2-yl)-3-(4-fluoro-3-methoxy-benzyl) imidazolidin-2-one]"
7,6.70 to 7.70,"CNc1nc(N2CCN(Cc3ccc(F)c(OC)c3)C2=O)ccc1-c1cn[nH]c1 [Example 199, 1-(4-fluoro-3-methoxy-benzyl)-3-(6-(methyl-amino)-5-(1H-pyrazol-4-yl)pyridin-2-yl)-imidazolidin-2-one]"
8,7.70 to 8.68,"CNc1nc(N2CCN(Cc3cc(F)cc(OC)c3)C2=O)ccc1-c1cn[nH]c1 [Example 200, 1-(3-fluoro-5-methoxy-benzyl)-3-(6-(methyl-amino)-5-(1H-pyrazol-4-yl)pyridin-2-yl)-imidazolidin-2-one]"
9,5.70 to 6.70,"CNc1nc(N2CCN(Cc3cccc(OCC4CC4)c3)C2=O)ccc1-c1cn[nH]c1 [Example 201, 1-(3-(cyclopropyl-methoxy)-benzyl)-3-(6-(methyl-amino)-5-(1H-pyrazol-4-yl)pyridin-2-yl)-imidazolidin-2-one]"
10,7.70 to 8.68,"CNc1nc(N2CCN(Cc3cccc(OC)c3)C2=O)ccc1-c1cn[nH]c1 [Example 202, 1-(3-methoxy-benzyl)-3-(6-(methyl-amino)-5-(1H-pyrazol-4-yl)pyridin-2-yl)-imidazolidin-2-one]"
11,5.70 to 6.70,"COc1cccc(CN2CCN(c3ccc(-c4ccncc4F)c(C)n3)C2=O)c1 [Example 205, 1-(3′-fluoro-2-methyl-[3,4′-bipyridin]-6-yl)-3-(3-methoxy-benzyl) imidazolidin-2-one]"
12,6.70 to 7.70,"Cc1nc(N2CCN(Cc3ccc(F)c(OCC4CC4)c3)C2=O)ccc1-c1cn[nH]c1 [Example 210, 1-(3-(cyclopropylmethoxy)-4-fluorobenzyl)-3-(6-methyl-5-(1H-pyrazol-4-yl)pyridin-2-yl)imidazolidin-2-one]"
13,5.70 to 6.70,"O=C1N(CC2CCCCC2)CCN1c1ccc(-c2cn[nH]c2)cc1 [Example 211, 1-(4-(1H-pyrazol-4-yl)phenyl)-3-(cyclohexylmethyl)imidazolidin-2-one]"
14,> 8.70,"COc1cc(CN2CCN(c3ccc(-c4cn[nH]c4)c(OC)n3)C2=O)ccc1F [Example 214, 1-(4-fluoro-3-methoxybenzyl)-3-(6-methoxy-5-(1H-pyrazol-4-yl)pyridin-2-yl)imidazolidin-2-one]"
15,7.70 to 8.68,"COc1nc(N2CCN(Cc3ccc(F)c(OCC4CC4)c3)C2=O)ccc1-c1cn[nH]c1 [Example 218, 1-(3-(cyclopropylmethoxy)-4-fluorobenzyl)-3-(6-methoxy-5-(1H-pyrazol-4-yl)pyridin-2-yl)imidazolidin-2-one]"
16,> 8.70,"COc1ccc(F)c(CN2CCN(c3ccc(-c4cn[nH]c4)c(OC)n3)C2=O)c1 [Example 221, 1-(2-fluoro-5-methoxybenzyl)-3-(6-methoxy-5-(1H-pyrazol-4-yl)pyridin-2-yl)imidazolidin-2-one]"
17,7.70 to 8.68,"COc1ccc(F)cc1CN1CCN(c2ccc(-c3cn[nH]c3)c(OC)n2)C1=O [Example 222, 1-(5-fluoro-2-methoxybenzyl)-3-(6-methoxy-5-(1H-pyrazol-4-yl)pyridin-2-yl)imidazolidin-2-one]"
18,7.70 to 8.68,"COc1nc(N2CCN(Cc3cccc(F)c3F)C2=O)ccc1-c1cn[nH]c1 [Example 223, 1-(2,3-difluorobenzyl)-3-(6-methoxy-5-(1H-pyrazol-4-yl)pyridin-2-yl)imidazolidin-2-one]"
